We go through 6 molecules from patent US4379788A, “2-Phenyl-pyrimidones” (Dr. Karl Thomae Gesellschaft mit beschrankter Haftung, priority 1980, dated 1983).

What all share (format): in vivo
Series [1] has as its system blood circulation. Briefly: Effect on blood circulation in anesthetized dogs (i.v.). Further details: Duration: unit not given here. To be noted: for Effect on average arterial blood pressure (first figure of the pair): figure before the slash; for Decrease in contractility dp/dt max: left ventricle. How it is done:
The blood circulation tests were carried out on dogs with a body weight of 18-29 kg under chloraloseurethane-nembutal anesthesia (54+270+10 mg/kg i.v.). After opening the thorax in the 4th left intercostal space the animals were ventilated with room air by means of a Harvard respirator. The arterial blood pressure was measured in the arteria carotis by a Statham pressure transducer; the heart rate was measured electronically from the sequence of the R-peaks of the electrocardiogram. The maximum rate of pressure increase ([…]) in the left ventricula was measured by means of a Konigsberg pressure received and a Grass differential amplifier. All parameters were recorded by means of a direct-writer. For anticoagulation the animals were injected i.v. with a solution of 10 mg/kg of sodium polyethylenesulfonate in 20% polydiol. The test compounds were administered intravenously to groups of 3 to 4 dogs.

Series [2] in a line: Determination of acute toxicity in mice after intravenous administration. To be noted: mouse, in vivo, iv, observation period 14 days. How it is done:
(§1) The acute toxicity of the test compound was determined in mice (observationperiod: 14 days) after intravenous administration.

In series [3] the test system is mice. Described as above. The settings on record: 35 mg/kg i.v., observation period 14 days. How it is done: as §1

As usually defined, the LD50 is the dose at which mortality reaches 50%. Turning to `COc1ccc2nc(-c3ccc(OCC(O)CN(C)CCc4ccc(OC)c(OC)c4)cc3)n(C)c(=O)c2c1.Cl.Cl` (centres unmarked) [B, 2-{4-[2-Hydroxy-3-(2-(3,4-dimethoxy-phenyl)-N-methylethylamino)-propoxy]-phenyl}-3-methyl-6-methoxy-3,4-dihydro-quinazolin-4-one dihydrochloride], in series [1] (1.0 mg/kg i.v.), the “Decrease in heart rate” value is -28 min⁻¹, the Duration is given as 45, the “Effect on average arterial blood pressure (first figure of the pair)” value (“Effect … (first figure of the pair)” for short) was -16 mm Hg and the “Decrease in contractility dp/dt max” value is reported as -17. The molecule also returned a 50% lethal dose (LD50) at 336 h in series [2] of over 35 mg/kg. For the same molecule, the “Acute toxicity: animals died” value in series [3] was 0 out of 5.

On to `COc1ccc2nc(-c3ccc(OCC(O)CNCCc4ccccc4OC)cc3)n(C)c(=O)c2c1.Cl.Cl` (centres unmarked) [C, 2-{4-[2-Hydroxy-3-(2-(2-methoxy-phenyl)-ethylamino)-propoxy]-phenyl}-3-methyl-6-methoxy-3,4-dihydroquinazolin-4-one dihydrochloride], for which, in series [1] (1.0 mg/kg i.v.), the “Decrease in heart rate” value was -22 min⁻¹, the Duration was over 36, the “Effect … (first figure of the pair)” value was “+1 mm Hg” and the “Decrease in contractility dp/dt max” value is reported as -14. Also, the 50% lethal dose (LD50) at 336 h in series [2] is over 35 mg/kg. For the same molecule, in series [3], the “Acute toxicity: animals died” value was 0 out of 5.

As to `COc1ccc2nc(-c3ccc(OCC(O)CNC(C)(C)C)cc3)n(C)c(=O)c2c1` (centres unmarked) [Compound A, 2-[4-(2-Hydroxy-3-tert.butylamino-propoxy)-phenyl]-3-methyl-6-methoxy-3,4-dihydro-quinazolin-4-one], in series [1] (0.5 mg/kg i.v.), the “Decrease in heart rate” value is -21 min⁻¹, the Duration was over 55, the “Effect … (first figure of the pair)” value is -20 mm Hg and the “Decrease in contractility dp/dt max” value was -33. Also, in series [1] (0.5 mg/kg i.v., figure after the slash), the “Effect on average arterial blood pressure (second figure of the pair)” value was -8 mm Hg. This molecule returned a median lethal dose (LD50) at 336 h in series [2] of over 35 mg/kg. Besides, the “Acute toxicity: animals died” value in series [3] is listed as 0 out of 5.

Turning to `COc1ccc2nc(-c3ccc(OCC(O)CNC(C)C)cc3)n(C)c(=O)c2c1` (centres unmarked) [D, 2-[4-(2-Hydroxy-3-isopropylamino-propoxy)-phenyl]-3-methyl-6-methoxy-3,4-dihydro-quinazolin-4-one], in series [1] (1.0 mg/kg i.v.), the “Decrease in heart rate” value was -30 min⁻¹, the Duration is recorded as over 40, the “Effect … (first figure of the pair)” value was -5 mm Hg and the “Decrease in contractility dp/dt max” value is listed as -27.

`COc1cc2nc(-c3ccc(OCC(O)CNCCOc4ccccc4C)cc3)n(C)c(=O)c2cc1OC` (centres unmarked) [E, 2-{4-[2-Hydroxy-3-(2-(2-methyl-phenoxy)-ethylamino)-propoxy]-phenyl}-3-methyl-6,7-dimethoxy-3,4-dihydroquinazolin-4-one]: in series [1] (1.0 mg/kg i.v.), the “Decrease in heart rate” value is -11 min⁻¹, the Duration is listed as over 36, the “Effect … (first figure of the pair)” value is listed as -13 mm Hg and the “Decrease in contractility dp/dt max” value was -14. The median lethal dose (LD50) at 336 h in series [2] is over 35 mg/kg. In addition, the “Acute toxicity: animals died” value in series [3] was 0 out of 5.

In the case of `COc1cccc2c(=O)n(C)c(-c3ccc(OCCCNCC(O)COc4cccc(C)c4)cc3)nc12` (centres unmarked) [F, 2-{4-[3-(2-Hydroxy-3-(3-methyl-phenoxy)-propylamino)-propoxy]-phenyl}-3-methyl-8-methoxy-3,4-dihydroquinazolin-4-one], in series [1] (1.0 mg/kg i.v.), the “Decrease in heart rate” value is -23 min⁻¹, the Duration is on record as over 63, the “Effect … (first figure of the pair)” value was -11 mm Hg and the “Decrease in contractility dp/dt max” value was -23. In series [2], the LD50 at 336 h is over 35 mg/kg. Also, the “Acute toxicity: animals died” value in series [3] is given as 0 out of 5.
